{"source": "patent US7871999B2", "about": "“Substituted thiazoles and their use for producing drugs” (Gruenenthal GmbH, priority 2005, dated 2011)", "key": {"mGluR5 receptor": {"target": "T1, mGluR5 receptor (Sus scrofa, UniProt I3LUI7)", "T1 construct": "pig brain hemispheres without medulla, cerebellum and pons ... differential centrifugation at 900×g and 40,000×g", "T1 sequence (I3LUI7 1-1212)": "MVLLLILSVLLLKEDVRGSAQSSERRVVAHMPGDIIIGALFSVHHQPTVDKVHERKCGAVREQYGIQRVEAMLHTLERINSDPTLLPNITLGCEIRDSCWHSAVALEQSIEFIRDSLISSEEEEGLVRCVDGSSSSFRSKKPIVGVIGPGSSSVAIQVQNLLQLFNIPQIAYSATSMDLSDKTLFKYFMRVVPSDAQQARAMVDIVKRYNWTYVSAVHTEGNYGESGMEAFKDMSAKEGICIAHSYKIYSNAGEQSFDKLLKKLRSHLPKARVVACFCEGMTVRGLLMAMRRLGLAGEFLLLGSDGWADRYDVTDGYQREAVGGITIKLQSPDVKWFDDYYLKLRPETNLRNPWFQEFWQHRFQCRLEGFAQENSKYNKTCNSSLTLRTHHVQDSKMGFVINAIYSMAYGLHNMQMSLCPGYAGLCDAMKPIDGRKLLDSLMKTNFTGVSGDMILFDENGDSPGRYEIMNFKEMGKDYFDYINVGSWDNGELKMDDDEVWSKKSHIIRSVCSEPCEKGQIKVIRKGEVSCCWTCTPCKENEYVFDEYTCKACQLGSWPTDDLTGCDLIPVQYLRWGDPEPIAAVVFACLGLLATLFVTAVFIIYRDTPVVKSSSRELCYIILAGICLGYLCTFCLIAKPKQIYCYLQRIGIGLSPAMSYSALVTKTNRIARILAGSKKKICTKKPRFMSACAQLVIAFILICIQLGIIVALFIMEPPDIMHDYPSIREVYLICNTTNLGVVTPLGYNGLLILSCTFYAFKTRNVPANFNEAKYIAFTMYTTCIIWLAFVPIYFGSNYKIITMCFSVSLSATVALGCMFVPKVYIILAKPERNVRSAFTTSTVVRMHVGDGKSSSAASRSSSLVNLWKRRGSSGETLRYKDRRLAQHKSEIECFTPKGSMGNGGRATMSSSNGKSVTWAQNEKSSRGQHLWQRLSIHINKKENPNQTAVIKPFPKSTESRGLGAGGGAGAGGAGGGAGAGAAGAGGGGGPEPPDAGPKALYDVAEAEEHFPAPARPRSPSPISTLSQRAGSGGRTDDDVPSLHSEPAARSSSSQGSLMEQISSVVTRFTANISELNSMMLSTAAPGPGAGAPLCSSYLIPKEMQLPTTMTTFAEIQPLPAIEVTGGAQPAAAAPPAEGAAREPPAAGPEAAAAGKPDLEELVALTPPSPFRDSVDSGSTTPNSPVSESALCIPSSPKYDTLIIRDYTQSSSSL", "assay": "Inhibition of [^3H]-MPEP binding in the mGluR5 receptor binding assay (pig brain homogenate)", "conditions": "5 nM [^3H]-MPEP", "procedure": "I. Method for Determining the Inhibition of [^3H]-MPEP Binding in the mGluR5 Receptor Binding Assay […]\nThe batches are then filtered with the assistance of a Brandel Cell Harvester (Brandel, Robotic 9600 model) on Unifilter plates with glass filter mats (Perkin Elmer, order number 6005177) and then washed 3 times with buffer (as above) using 250 μl per sample. The filter plates are then dried for 60 min at 55° C. Then 30 μl of Ultima Gold™ scintillating material (Packard BioScience, order number 6013159) is added per well and after 3 hours the samples are measured using the β counter (Microbeta, Perkin Elmer). Nonspecific binding is determined by the addition of 10 μM MPEP (Tocris, order number 1212)."}, "rats": {"test_system": "rats", "assay": "Formaldehyde test in rats (phase 2, chronic pain component)", "format": "in vivo", "conditions": "rat", "procedure": "III. Formaldehyde Test in Rats: The formaldehyde test (Dubuisson, D. and Dennis, S. G., 1977, Pain, 4, 161-174) is a model of both acute and chronic pain. A biphasic nociceptive response is induced in freely mobile test animals by a single formaldehyde injection into the dorsal side of a hind paw, said response being detected by the observation of three clearly distinguishable behaviour patterns. The response is in two phases: phase 1=immediate response (duration up to 10 min; paw shaking, licking), phase 2=late response (after a resting phase; likewise paw shaking, licking; duration up to 60 min). The 1st phase reflects direct stimulation of the peripheral nocisensors with an elevated spinal nociceptive input or glutamate release (acute pain phase); the 2nd phase reflects spinal and peripheral hypersensitisation (chronic pain phase). In the investigations presented here, it was the chronic pain component (phase 2) which was evaluated. […] The specific behavioural changes, such as raising and shaking the paw, changes in weight bearing of the animal and biting and licking responses are observed and recorded over the observation period of 21 to 27 min after the formaldehyde injection. The various behaviours are summarised as a “pain rate” (PR), which is the calculated nociceptive response averaged over 3 min sub-intervals. […]"}}, "data": [{"compound": "CN(CCNC(=O)C#Cc1cccc(Cl)c1)c1nccs1.Cl", "note": "[Example 23, N-(2-(Methyl(thiazol-2-yl)amino)ethyl)-3-(3-chlorophenyl)-propiolamide hydrochloride]", "values": [{"measurement": "IC50", "setting": "mGluR5 receptor", "result": 5.6, "unit": "nM"}, {"measurement": "ED50", "setting": "rats; iv, i.v. administration", "result": 1, "unit": "mg/kg"}, {"measurement": "inhibition in the formaldehyde test", "setting": "rats; oral administration of 10 mg/kg", "result": 38, "unit": "%"}]}]}
